The nature of data set [1]: in vivo. The following applies: rat, plasma, po, 2.5 mg/kg.
Data set [2] is described as follows: in vivo. The following applies: rat, po, 2.5 mg/kg.
A short description of data set [3]: physchem. Particulars: aqueous.
A short description of data set [4]: physchem. The following applies: aqueous. The source holds these as a separate data set.

We go through 1 compound from ChEMBL document CHEMBL3351234, “Discovery of novel 2,4-diarylaminopyrimidine analogues (DAAPalogues) showing potent inhibitory activities against both wild-type and mutant ALK kinases” (J Med Chem, 2015).

≈ marks a conversion by molar mass, not a printed value.

The AUC(0-inf) is total exposure, with the tail of the curve extrapolated. A high value points to high exposure. In general, half-life refers to how long it takes for the measured level to halve. Usually solubility stands for how much of the substance goes into solution per volume. The low end stands for a poorly soluble substance, the high end for a readily soluble substance. On to `CC(C)S(=O)(=O)c1ccccc1Nc1nc(Nc2cccc(NC(=O)CN)c2)ncc1Cl`, for which the AUC(0-inf) in “in vivo [1]” amounted to 454 ng·h/mL. The same compound had a half-life in “in vivo [2]” of 30 min. In addition, the solubility was under 100 µg/mL in “physchem [3]” and 4000 µg/mL (≈ 8.42 mM) in “physchem [4]”.
